Experimental data published in patent publication EP0673922A1, “Non-ionic iodinated dimers as X-ray contrast agents, process for their preparation and pharmaceutical compositions containing them” (CENTRO INVESTIGACION JUSTESA IMAGEN S.A., priority 1994, dated 1995).

Legend:
[1] = Solubility in water; assay type: physicochemical
[2] = Osmolality of aqueous solution; assay type: physicochemical
Method: (§1) Die Produkte der Erfindung der allgemeinen Formel I sind durch eine gute Löslichkeit in Wasser bei 20°C, eine Osmolalität in wässriger Lösung, die kleiner als die Osmolalität des Blutes (280 mOs/kg) ist, sowie durch eine niedrige allgemeine Toxizität gekennzeichnet, die als […] (LD₅₀) in Ratte bei intravenöser Gabe ausgedrückt wird.

[3] = Viscosity of aqueous solution; assay type: physicochemical
[4] = system: Ratte; assay: General (acute) toxicity, LD50 after intravenous administration; assay type: in vivo; conditions: rat, intravenous administration (b7)
Method: as §1

## CN(C(=O)C(O)C(=O)N(C)c1c(I)c(C(N)=O)c(I)c(C(=O)NC(CO)C(O)CO)c1I)c1c(I)c(C(N)=O)c(I)c(C(=O)NC(CO)C(O)CO)c1I (stereo not drawn) [Beispiel 6, N,N'-Dimethyl-N,N'-bis-{5-carbamoyl-3-[N-(1-hydroxymethyl-2,3-dihydroxypropyl)carbamoyl]-2,4,6-triiodphenyl}-hydroxymalonamid]
[1]
  Löslichkeit in Wasser bei 20°C und 300 mg I/ml: <60%

## CNC(=O)c1c(I)c(C(=O)NCC(O)CO)c(I)c(N(CCO)C(=O)C(O)C(=O)N(CCO)c2c(I)c(C(=O)NC)c(I)c(C(=O)NCC(O)CO)c2I)c1I (stereo not drawn) [Beispiel 1, N,N-Bis-(2-hydroxyethyl)-N,N'-bis-(3-[N-(2,3-dihydroxypropyl)carbamoyl]-5-(N-methylcarbamoyl)-2,4,6-triiodphenyl}hydroxymalonamid]
[1]
  Löslichkeit in Wasser bei 20°C und 300 mg I/ml: <60%

## CN(C(=O)C(O)C(=O)N(C)c1c(I)c(C(=O)NCC(O)CO)c(I)c(C(=O)NCC(O)CO)c1I)c1c(I)c(C(N)=O)c(I)c(C(=O)NCC(O)CO)c1I (stereo not drawn) [Beispiel 7, N,N'-Dimethyl-N-{5-carbamoyl-3-[N-(2,3-dihydroxypropyl)carbamoyl]-2,4,6-triiodphenyl}-N'-{3,5-bis-[N-(2,3-dihydroxypropyl)carbamoyl]-2,4,6-triiodphenyl}hydroxymalonamid]
[2]
  Osmolatität bei 37°C und 300 mg I/ml: 170 mOs/kg
[3]
  Viskosität bei 37°C und 300 mg I/ml: 8,1 mPa·s
[4]
  LD₅₀ Ratte: >15 g I/kg
[1]
  Löslichkeit in Wasser bei 20°C und 300 mg I/ml: >60%

## CN(C(=O)C(=O)C(=O)N(C)c1c(I)c(C(N)=O)c(I)c(C(=O)NCC(O)CO)c1I)c1c(I)c(C(N)=O)c(I)c(C(=O)NCC(O)CO)c1I (stereo not drawn) [Beispiel 14, N,N'-Dimethyl-N,N'-bis-{5-carbamoyl-3-[N-(2,3-dihydroxypropyl)carbamoyl]-2,4,6-triiodphenyl}cetomalonamid]
[1]
  Löslichkeit in Wasser bei 20°C und 300 mg I/ml: <60%

## O=C(NCCO)c1c(I)c(C(=O)NCC(O)CO)c(I)c(N(CC(O)CO)C(=O)CC(=O)N(CC(O)CO)c2c(I)c(C(=O)NCCO)c(I)c(C(=O)NCC(O)CO)c2I)c1I (stereo not drawn) [Beispiel 4, N,N'-Bis-(2,3-hydroxypropyl)-N,N'-bis-{3-[N-(2,3-dihydroxypropyl)carbamoyl]-5-[N-(2-hydroxyethyl)carbamoyl]-2,4,6-triiodphenyl}malonamid]
[2]
  Osmolatität bei 37°C und 300 mg I/ml: 190 mOs/kg
[3]
  Viskosität bei 37°C und 300 mg I/ml: 6,8 mPa·s
[4]
  LD₅₀ Ratte: >15 g I/kg
[1]
  Löslichkeit in Wasser bei 20°C und 300 mg I/ml: >60%

## CC(=O)N(CC(O)CN(C(C)=O)c1c(I)c(C(=O)NCC(O)CO)c(I)c(C(=O)NCC(O)CO)c1I)c1c(I)c(C(=O)NCC(O)CO)c(I)c(C(=O)NCC(O)CO)c1I (stereo not drawn) [IODIXANOL, Iodixanol, reference compound]
[2]
  Osmolatität bei 37°C und 300 mg I/ml: 200 mOs/kg
[3]
  Viskosität bei 37°C und 300 mg I/ml: 8,7 mPa·s
[4]
  LD₅₀ Ratte: >15 g I/kg
[1]
  Löslichkeit in Wasser bei 20°C und 300 mg I/ml: >60%

## NC(=O)c1c(I)c(C(=O)NCC(O)CO)c(I)c(N(CCO)C(=O)C(O)C(=O)N(CCO)c2c(I)c(C(N)=O)c(I)c(C(=O)NCC(O)CO)c2I)c1I (stereo not drawn) [Beispiel 8, N,N'-Bis-(2-hydroxyethyl)-N,N'-bis-{5-carbamoyl-3-[N-(2,3-dihydroxypropyl)carbamoyl]-2,4,6-triiodphenyl}-hydroxymalonamid]
[1]
  Löslichkeit in Wasser bei 20°C und 300 mg I/ml: <60%

## O=C(NCCO)c1c(I)c(C(=O)NCC(O)CO)c(I)c(N(CCO)C(=O)CC(=O)N(CCO)c2c(I)c(C(=O)NCCO)c(I)c(C(=O)NCC(O)CO)c2I)c1I (stereo not drawn) [Beispiel 3, N,N'-Bis-(2-hydroxyethyl)-N,N'-bis-{3-[N-(2,3-dihydroxypropyl)-carbamoyl]-5-[N-(2-hydroxyethyl)carbamoyl]-2,4,6-triiodphenyl}-malonamid]
[2]
  Osmolatität bei 37°C und 300 mg I/ml: 160 mOs/kg
[3]
  Viskosität bei 37°C und 300 mg I/ml: 7,5 mPa·s
[4]
  LD₅₀ Ratte: >15 g I/kg
[1]
  Löslichkeit in Wasser bei 20°C und 300 mg I/ml: >60%

## O=C(NCCO)c1c(I)c(C(=O)NCC(O)CO)c(I)c(N(CC(O)CO)C(=O)C(O)C(=O)N(CC(O)CO)c2c(I)c(C(=O)NCCO)c(I)c(C(=O)NCC(O)CO)c2I)c1I (stereo not drawn) [Beispiel 11, N,N'-Bis-(2,3-dihydroxypropyl)-N,N'-bis-{3-[N-(2,3-dihydroxypropyl)carbamoyl]-5-[N-(2-hydroxyethyl)carbamoyl]-2,4,6-triiodphenyl}hydroxymalonamid]
[2]
  Osmolatität bei 37°C und 300 mg I/ml: 210 mOs/kg
[3]
  Viskosität bei 37°C und 300 mg I/ml: 7,8 mPa·s
[4]
  LD₅₀ Ratte: >15 g I/kg
[1]
  Löslichkeit in Wasser bei 20°C und 300 mg I/ml: >60%

## CNC(=O)c1c(I)c(C(=O)NCC(O)CO)c(I)c(N(CC(O)CO)C(=O)C(O)C(=O)N(CC(O)CO)c2c(I)c(C(=O)NC)c(I)c(C(=O)NCC(O)CO)c2I)c1I (stereo not drawn) [Beispiel 2, N,N'-Bis-(2,3-dihydroxypropyl)-N,N'-bis-{3-[N-(2,3-dihydroxypropyl)carbamoyl]-5-(N-methylcarbamoyl)-2,4,6-triiodphenyl}-hydroxymalonamid]
[1]
  Löslichkeit in Wasser bei 20°C und 300 mg I/ml: <60%

## O=C(NCCO)c1c(I)c(C(=O)NCC(O)CO)c(I)c(N(CCO)C(=O)C(O)C(=O)N(CCO)c2c(I)c(C(=O)NCCO)c(I)c(C(=O)NCC(O)CO)c2I)c1I (stereo not drawn) [Beispiel 10, N,N'-Bis-(2-hydroxyethyl)-N,N'-bis-{3-[N-(2,3-dihydroxypropyl)carbamoyl]-5-[N-(2-hydroxyethyl)carbamoyl]-2,4,6-triiodphenyl}hydroxymalonamid]
[2]
  Osmolatität bei 37°C und 300 mg I/ml: 170 mOs/kg
[3]
  Viskosität bei 37°C und 300 mg I/ml: 7,3 mPa·s
[4]
  LD₅₀ Ratte: >15 g I/kg
[1]
  Löslichkeit in Wasser bei 20°C und 300 mg I/ml: >60%

## CN(C(=O)C(O)C(=O)N(C)c1c(I)c(C(N)=O)c(I)c(C(=O)NCC(O)CO)c1I)c1c(I)c(C(N)=O)c(I)c(C(=O)NCC(O)CO)c1I (stereo not drawn) [Beispiel 5, N,N'-Dimethyl-N,N'-bis-{5-carbamoyl-3-[N-(2,3-dihydroxypropyl)carbamoyl]-2,4,6-triiodphenyl}hydroxymalonamid]
[1]
  Löslichkeit in Wasser bei 20°C und 300 mg I/ml: <60%

## NC(=O)c1c(I)c(C(=O)NC(CO)C(O)CO)c(I)c(N(CCO)C(=O)C(O)C(=O)N(CCO)c2c(I)c(C(N)=O)c(I)c(C(=O)NC(CO)C(O)CO)c2I)c1I (stereo not drawn) [Beispiel 9, N,N'-Bis-(2-hydroxyethyl)-N,N'-bis-{5-carbamoyl-3-[N-(1-hydroxymethyl-2,3-dihydroxy-propyl)carbamoyl]-2,4,-6-triiodphenyl}hydroxymalonamid]
[1]
  Löslichkeit in Wasser bei 20°C und 300 mg I/ml: <60%

## CN(C(=O)C(=O)C(=O)N(C)c1c(I)c(C(=O)NCC(O)CO)c(I)c(C(=O)NCC(O)CO)c1I)c1c(I)c(C(=O)NCC(O)CO)c(I)c(C(=O)NCC(O)CO)c1I (stereo not drawn) [Beispiel 13, N,N'-Dimethyl-N,N'-bis-{3,5-bis[N-(2,3-dihydroxypropyl)carbamoyl]-2,4,6-triiodphenyl}cetomalonamid]
[2]
  Osmolatität bei 37°C und 300 mg I/ml: 160 mOs/kg
[3]
  Viskosität bei 37°C und 300 mg I/ml: 10,9 mPa·s
[4]
  LD₅₀ Ratte: >15 g I/kg
[1]
  Löslichkeit in Wasser bei 20°C und 300 mg I/ml: >60%

## NC(=O)c1c(I)c(C(=O)NCC(O)CO)c(I)c(N(CC(O)CO)C(=O)C(O)C(=O)N(CC(O)CO)c2c(I)c(C(N)=O)c(I)c(C(=O)NCC(O)CO)c2I)c1I (stereo not drawn) [Beispiel 12, N,N'-Bis-(2,3-dihydroxypropyl)-N,N'-bis-{5-carbamoyl-3-[N-(2,3-dihydroxypropyl)carbamoyl]-2,4,6-triiodphenyl}-hydroxymalonamid]
[2]
  Osmolatität bei 37°C und 300 mg I/ml: 240 mOs/kg
[3]
  Viskosität bei 37°C und 300 mg I/ml: 6,5 mPa·s
[4]
  LD₅₀ Ratte: >15 g I/kg
[1]
  Löslichkeit in Wasser bei 20°C und 300 mg I/ml: >60%
